The subject of one test is epitope peptide. Nature of the test: Antibody titer (GMT) of serum of mice administered AJP001 conjugated peptide, ELISA. To be noted: BALB/c mice, no adjuvant; for antibody titer (GMT) over time: 1 mg/body intradermal 3 times at two-week intervals, blood every 2 weeks until 8 weeks. It is filed as in vivo, mouse. As to the method: AJP001 conjugated peptide having one of the B cell epitope sequences of SEQ ID NOs: 1-5 was dissolved in physiological saline and intradermally administered twice to BALB/c mice (female, 6-week-old, N=5-6) at 0.5 mg/body at 2-week intervals. Blood was collected before administration and 5 weeks after the initial administration, and the antibody titer against each AJP001 conjugated peptide and the binding ability to recombinant mouse IL-23 protein (rmIL-23) were measured by the ELISA method. Specifically, a 96-well plate immobilized with an epitope peptide dissolved at 10 μg/mL in carbonate buffer was blocked with 5% skim milk/PBS, and then serum serially diluted with 5% skim milk/PBS was added, and the mixture was left standing at 4° C. overnight. After washing the wells with PBS-T, HRP-labeled anti-mouse IgG antibody (GE Healthcare) diluted with 5% skim milk/PBS was added and the mixture was shaken at room temperature for 3 hr. After washing the wells with PBS-T, TMB solution (SIGMA) was added, the wells were allowed to stand for 30 min in the dark, the reaction was stopped by adding 0.5M H2SO4, and the absorbance at 450 nm was measured using a plate reader. The serum dilution rate that gave 1/2 (OD=1.75) of the maximum absorbance was defined as the antibody titer, and the geometric mean titer: GMT was calculated from the individual values. Binding to IL-23 protein was measured by the ELISA method in the same manner as the antibody titer, using rmIL-23 (Antibodies-online GmbH) as the solid-phased antigen and goat serum for blocking.
AJP001 conjugated peptide (SEQ ID NO: 2) was dissolved in physiological saline and intradermally administered to BALB/c mice (female, 6-week-old, N=6) at 1 mg/body 3 times at two-week intervals, and blood was collected every 2 weeks until 8 weeks. The antibody titer (GMT) of all the collected sera and the binding ability to rmIL-23 of the serum at the time point of 6 weeks were measured by the ELISA method (same method as in Example 1). The antibody titer and the binding of the induced antibody to rmIL-23 at each time point are shown in FIGS. 2 (a) and (b), respectively.
AJP001 conjugated peptide (SEQ ID NOs: 6-37) was dissolved in physiological saline, mixed with an equal amount of 2% Alhydrogel (invivogen), and this was intradermally administered to BALB/c mice (female, 6-week-old, N=5-6) at 0.5 mg/body 3 times at two-week intervals. Blood was collected before administration and at the time point of 6 weeks after initial administration, and the antibody titer (GMT) to each epitope sequence and binding ability to recombinant human IL-23 protein (rhIL-23) (Peprotech) were measured by the ELISA method (same method as in Example 1). The binding to rhIL-23 was evaluated by a binding ratio to normal serum by calculating the ratio of the absorbance of a well added with normal mouse serum to the absorbance of a well added with antiserum derived from a mouse administered with each AJP001 conjugated peptide (SEQ ID NOs: 6-37). In addition, the neutralization activity of mouse antiserum was evaluated using an action on IL-17 production in rhIL-23 stimulated mouse splenocyte as an index. The spleen of normal BALB/c mouse (female, 5-week-old, N=3) was triturated using a syringe barrel and a cell strainer and washed with and suspended in HBSS (−). Erythrocytes were then removed using ACK Buffer (Thermo fisher scientific), and splenocytes were isolated. The splenocytes were prepared to 2.5×10^6 cells/mL with 10% FBS/1% penicillin/streptomycin/4 ng/mL rmIL-2-containing RPMI1640 medium (culture medium), and seeded in a 96 well plate at 100 μl/well. The antiserum (final concentration 15-fold) of the mice administered with each AJP001 conjugated peptide and rhIL-23 (final concentration 10 ng/ml) were added to the culture medium, reacted at 37° C. for 2 hr, added at 100 μL/well to a 96-well plate seeded with splenocytes, and cultured for 3 days in a 37° C./5% CO2 incubator. […]
A general note: In an ELISA, binding on a coated surface is turned into a signal by an enzyme label.

In the next test the test system is splenocytes. The test can be described thus: ELISPOT assay for T cell activation (IFN-γ, IL-4) in splenocytes of administered mice. The format is cell-based, mouse. To be noted: splenocytes 7 weeks after first administration, stimulated with 10 μg/mL AJP001 alone or 10 μg/mL AJP001 conjugated peptide. The procedure:
In addition, ELISPOT assay was performed to evaluate T cell activation. AJP001 conjugated peptide (SEQ ID NO: 2) or physiological saline was administered three times at two-week intervals to BALB/c mice (female, 6-week-old, N=3-4), and the spleen was collected 7 weeks after the first administration. The collected spleen was triturated using a syringe barrel and a cell strainer. This was washed with and suspended in HBSS (−), erythrocytes were removed using ACK Buffer (Thermo fisher scientific), and splenocytes were isolated. Using Mouse IFN-γ ELISpot assay kit and Mouse IL-4 ELISpot assay kit (R&D systems), the cells were prepared to 2.5×10^6 cells/mL with 10% FBS/1% penicillin/streptomycin/4 ng/mL rmIL-2-containing RPMI1640 medium (culture medium), and seeded at 100 μL/well on the 96-well plate of which each capture antibody was immobilized. Splenocytes were stimulated by adding (1) medium alone, (2) 10 μg/mL T cell antigen AJP001 (SEQ ID NO: 38) alone, (3) 10 μg/mL AJP001 conjugated peptide (SEQ ID NO: 2), or (4) 100 ng/mL PMA/ionomycin (PMA/IM, Sigma) to each well. Stimulation was performed for 2 days in a […]. Then, a detection antibody was added and, after washing, a colorimetric reaction was performed. The stained cells were measured with a microscope. The number of IFN-γ and IL-4 positive cells was calculated as the number of cells per 10^6 cell number (SFC/10^6 cells). In FIG. 2, “*” means significant (P<0.05).
In addition, AJP001 conjugated peptide (SEQ ID NO: 6) or physiological saline was administered three times at two-week intervals to BALB/c mouse (female, 6-week-old, N=3-4), and the spleen was collected 7 weeks after the first administration. The collected spleen was subjected to ELISPOT assay using Mouse IFN-γ ELISpot assay kit and Mouse IL-4 ELISpot assay kit (R&D systems).

Where no end group is shown, it is not given here.

In the case of “SEQ ID NO 2: AJP001-Ahx-B cell epitope peptide conjugate; epitope SSSQQWQR (mouse 152-159) (not fully specified (N-terminus); listed as Mus musculus)”, in the test on epitope peptide (0.5 mg/body intradermal twice at 2-week intervals, 5 weeks after initial administration), the antibody titer result is given as “significant increase”. The “antibody titer (GMT) over time” value with epitope peptide was “increased from the 2nd week and persisted until the 8th week”. Also, in the test on splenocytes, the “number of IFN-γ positive cells” value is listed as “increase” and the “number of IL-4 positive cells” value is given as “increase”.
On to “SEQ ID NO 6: AJP001-Ahx-B cell epitope peptide conjugate; epitope SPSQPWQR (human 151-158) (not fully specified (N-terminus); listed as Homo sapiens)”, for which, in the test with epitope peptide, the “antibody titer (GMT) over time” value is “increased from the 2nd week and persisted until the 8th week”. In the test with splenocytes, the “number of IFN-γ positive cells” value was “increase” and the “number of IL-4 positive cells” value is listed as “increase”.

The record behind these values is patent US20250057928A1, “VACCINE COMPOSITION FOR INDUCING ANTI-IL-23 ANTIBODY” (OSAKA UNIVERSITY, priority 2021, published 2025).
